Measured values reported in ChEMBL document CHEMBL1177777, “Novel pyridobenzimidazole derivatives exhibiting antifungal activity by the inhibition of beta-1,6-glucan synthesis” (2010).
Converted amounts (≈) assume the structure as drawn. The source made the active and inactive calls. The calls are words filed in the database; no cut-off is given here.

How the values were obtained:
Candida tropicalis [1] = assay: Antifungal activity against Candida tropicalis TIMM 0313 assessed as inhibition of beta-1,6-glucan synthesis; assay type: functional, organism-based
Candida tropicalis [2] = assay: Antifungal activity against Candida tropicalis TIMM 0313 after 24 hrs by microdilution method; assay type: functional; settings: TIMM 0313, 24 h
Candida albicans [3] = assay: Antifungal activity against Candida albicans ATCC 24433 assessed as inhibition of beta-1,6-glucan synthesis; assay type: functional, organism-based
Nakaseomyces glabratus [4] = assay: Antifungal activity against Candida glabrata IFO 0622 assessed as inhibition of beta-1,6-glucan synthesis; assay type: functional, organism-based
Aspergillus fumigatus [5] = assay: Antifungal activity against Aspergillus fumigatus ATCC 36607 after 24 hrs by microdilution method; assay type: functional; settings: ATCC 36607, 24 h
Aspergillus fumigatus [6] = assay: Antifungal activity against Aspergillus fumigatus ATCC 36607 assessed as inhibition of beta-1,6-glucan synthesis; assay type: functional, organism-based
Nakaseomyces glabratus [7] = assay: Antifungal activity against Candida glabrata IFO 0622 after 24 hrs by microdilution method; assay type: functional; settings: IFO 0622, 24 h
Pichia kudriavzevii [8] = assay: Antifungal activity against Candida krusei TIMM 0269 after 24 hrs by microdilution method; assay type: functional; settings: TIMM 0269, 24 h
Candida albicans [9] = assay: Antifungal activity against Candida albicans ATCC 24433 after 24 hrs by microdilution method; assay type: functional; settings: ATCC 24433, 24 h
Pichia kudriavzevii [10] = assay: Antifungal activity against Candida krusei TIMM 0269 assessed as inhibition of beta-1,6-glucan synthesis; assay type: functional, organism-based

Row | Structure (SMILES) | inhibition (Candida tropicalis [1]) | MIC (Candida tropicalis [2]) [µg/mL] | inhibition (Candida albicans [3]) | inhibition (Nakaseomyces glabratus [4]) | MIC (Aspergillus fumigatus [5]) [µg/mL] | inhibition (Aspergillus fumigatus [6]) | MIC (Nakaseomyces glabratus [7]) [µg/mL] | MIC (Pichia kudriavzevii [8]) [µg/mL] | MIC (Candida albicans [9]) [µg/mL] | inhibition (Pichia kudriavzevii [10])
1 | Cc1c(-c2ccccc2)c(N2CC[C@H](N(C)C)C2)n2c(nc3ccccc32)c1C#N | Active | 0.5 (≈ 1.26 µM) | Active | Active | > 128 | Active | ≤ 0.125 | ≤ 0.125 | > 128 | Active
2 | CCc1c(C)c(C(N)=O)c2nc3ccccc3n2c1NCCN(C)CC |  | > 128 |  |  | > 128 |  | > 128 | > 128 | > 128 | 
3 | CCc1c(C)c(C#N)c2nc3ccccc3n2c1N1CCCC1 |  | > 64 |  |  | > 64 |  | > 64 | > 64 | > 64 | 
4 | CC(=O)OCCc1c(C)c(C#N)c2nc3ccccc3n2c1N1CC[C@H](N(C)C)C1 |  | 16 (≈ 39.5 µM) |  |  | > 128 |  | 1 (≈ 2.47 µM) | 4 (≈ 9.86 µM) | > 128 | 
5 | OC(Cn1cncn1)(Cn1cncn1)c1ccc(F)cc1F [FLUCONAZOLE] |  | 0.25 (≈ 0.816 µM) |  |  | > 64 |  | 2 (≈ 6.53 µM) | 16 (≈ 52.2 µM) | 0.25 (≈ 0.816 µM) | 
6 | CCc1c(C)c(C#N)c2nc3ccccc3n2c1NCCN |  | > 128 |  |  | > 128 |  | 4 (≈ 13.6 µM) | 32 (≈ 109 µM) | > 128 | 
7 | CCCCc1c(C)c(C#N)c2nc3ccccc3n2c1N1CC[C@H](N(C)C)C1 |  | 0.5 (≈ 1.33 µM) |  |  | > 128 |  | ≤ 0.125 | 0.5 (≈ 1.33 µM) | > 128 | 
8 | CCc1c(C)c(C#N)c2nc3ccccc3n2c1N1CC[C@@H](N(C)C)C1 |  | 64 (≈ 184 µM) |  |  | > 128 |  | 1 (≈ 2.88 µM) | 16 (≈ 46 µM) | > 128 | 
9 | CCCNc1c(CC)c(C)c(C#N)c2nc3ccccc3n12 |  | > 128 |  |  | > 128 |  | > 128 | > 128 | > 128 | 
10 | CCc1c(C)c(C#N)c2nc3ccccc3n2c1N1CC[C@H](N(C)C)C1 |  | 32 (≈ 92.1 µM) |  |  | > 128 |  | 0.5 (≈ 1.44 µM) | 2 (≈ 5.76 µM) | > 128 | 
11 | CCc1c(C)c(C#N)c2nc3ccccc3n2c1NCCN(CC)CC |  | > 128 |  |  | > 128 |  | 1 (≈ 2.86 µM) | 4 (≈ 11.4 µM) | > 128 | 
12 | CN(C)[C@H]1CCN(c2c(-c3ccccc3)cc(C#N)c3nc4ccccc4n23)C1 |  | 8 (≈ 21 µM) |  |  | > 128 |  | ≤ 0.125 | 2 (≈ 5.24 µM) | > 128 | 
13 | Cc1cc(N2CC[C@H](N(C)C)C2)n2c(nc3ccccc32)c1C#N |  | > 128 |  |  | > 128 |  | 8 (≈ 25 µM) | 32 (≈ 100 µM) | > 128 | 
14 | CCc1c(-c2ccccc2)c(C#N)c2nc3ccccc3n2c1N1CC[C@H](N(C)C)C1 |  | > 128 |  |  | > 128 |  | > 128 | > 128 | > 128 | 
15 | Cc1c(F)c(N2CC[C@H](N(C)C)C2)n2c(nc3ccccc32)c1C#N |  | > 128 |  |  | > 128 |  | 4 (≈ 11.9 µM) | 16 (≈ 47.4 µM) | > 128 | 
16 | CCc1c(C)c(C#N)c2nc3ccccc3n2c1N1CCC(N(C)C)CC1 |  | > 128 |  |  | > 128 |  | > 128 | > 128 | > 128 | 
17 | Cc1c(CCO)c(N2CC[C@H](N(C)C)C2)n2c(nc3ccccc32)c1C#N |  | > 128 |  |  | > 128 |  | 32 (≈ 88 µM) | 16 (≈ 44 µM) | > 128 | 
18 | CCc1c(C)c(C#N)c2nc3ccccc3n2c1NCCCN(C)C |  | > 128 |  |  | > 128 |  | > 128 | > 128 | > 128 | 
19 | CCc1c(C)c(C#N)c2nc3ccccc3n2c1N1CCN(C)CC1 |  | > 32 |  |  | > 32 |  | > 32 | > 32 | > 32 | 
